Laboratory results as given in ChEMBL document CHEMBL1152690, “The spirocyclopropyl moiety as a methyl surrogate in the structure of l-fucosidase and l-rhamnosidase inhibitors” (Bioorg Med Chem, 2009).
Active and inactive are the calls of the source. The calls are words filed in the database; no cut-off is given here.

How the values were obtained:
[1] = target: T1, Tissue alpha-L-fucosidase (Bos taurus, UniProt Q2KIM0); assay: Inhibition of bovine kidney alpha-L-fucosidase by para-nitrophenolate release assay
T1 sequence (Q2KIM0 whole entry): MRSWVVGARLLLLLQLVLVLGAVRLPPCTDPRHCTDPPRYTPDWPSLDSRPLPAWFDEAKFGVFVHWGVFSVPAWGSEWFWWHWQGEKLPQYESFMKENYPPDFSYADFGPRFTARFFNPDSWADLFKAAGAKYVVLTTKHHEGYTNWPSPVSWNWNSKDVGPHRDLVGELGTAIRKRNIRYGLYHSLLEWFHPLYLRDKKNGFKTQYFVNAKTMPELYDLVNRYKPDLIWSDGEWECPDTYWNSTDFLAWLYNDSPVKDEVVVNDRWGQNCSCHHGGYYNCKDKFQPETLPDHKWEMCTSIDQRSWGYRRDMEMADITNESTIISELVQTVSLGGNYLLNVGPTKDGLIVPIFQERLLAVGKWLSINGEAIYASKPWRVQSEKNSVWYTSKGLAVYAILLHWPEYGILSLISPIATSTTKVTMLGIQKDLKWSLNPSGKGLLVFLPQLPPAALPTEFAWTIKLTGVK

[2] = target: T2, Tissue alpha-L-fucosidase (Bos taurus) (UniProt Q2KIM0); assay: Inhibition of bovine kidney alpha-L-fucosidase at 1 mM by para-nitrophenolate release assay
T2 sequence (whole entry): T1 sequence (Q2KIM0 whole entry)

[3] = Inhibition of Penicillium decumbens Alpha-L-rhamnosidase by para-nitrophenolate release assay
Penicillium decumbens [4] = assay: Inhibition of Penicillium decumbens Alpha-L-rhamnosidase at 1 mM by para-nitrophenolate release assay
Coffea arabica = assay: Inhibition of coffee bean alpha-galactosidase at 1 mM
[5] = target: Beta-galactosidase (Escherichia coli) (UniProt Q8VNN2); assay: Inhibition of Escherichia coli beta-galactosidase at 1 mM
[6] = target: T3, Beta-galactosidase (Aspergillus oryzae) (UniProt Q2U7N3); assay: Inhibition of Aspergillus oryzae beta-galactosidase at 1 mM
T3 sequence (whole entry): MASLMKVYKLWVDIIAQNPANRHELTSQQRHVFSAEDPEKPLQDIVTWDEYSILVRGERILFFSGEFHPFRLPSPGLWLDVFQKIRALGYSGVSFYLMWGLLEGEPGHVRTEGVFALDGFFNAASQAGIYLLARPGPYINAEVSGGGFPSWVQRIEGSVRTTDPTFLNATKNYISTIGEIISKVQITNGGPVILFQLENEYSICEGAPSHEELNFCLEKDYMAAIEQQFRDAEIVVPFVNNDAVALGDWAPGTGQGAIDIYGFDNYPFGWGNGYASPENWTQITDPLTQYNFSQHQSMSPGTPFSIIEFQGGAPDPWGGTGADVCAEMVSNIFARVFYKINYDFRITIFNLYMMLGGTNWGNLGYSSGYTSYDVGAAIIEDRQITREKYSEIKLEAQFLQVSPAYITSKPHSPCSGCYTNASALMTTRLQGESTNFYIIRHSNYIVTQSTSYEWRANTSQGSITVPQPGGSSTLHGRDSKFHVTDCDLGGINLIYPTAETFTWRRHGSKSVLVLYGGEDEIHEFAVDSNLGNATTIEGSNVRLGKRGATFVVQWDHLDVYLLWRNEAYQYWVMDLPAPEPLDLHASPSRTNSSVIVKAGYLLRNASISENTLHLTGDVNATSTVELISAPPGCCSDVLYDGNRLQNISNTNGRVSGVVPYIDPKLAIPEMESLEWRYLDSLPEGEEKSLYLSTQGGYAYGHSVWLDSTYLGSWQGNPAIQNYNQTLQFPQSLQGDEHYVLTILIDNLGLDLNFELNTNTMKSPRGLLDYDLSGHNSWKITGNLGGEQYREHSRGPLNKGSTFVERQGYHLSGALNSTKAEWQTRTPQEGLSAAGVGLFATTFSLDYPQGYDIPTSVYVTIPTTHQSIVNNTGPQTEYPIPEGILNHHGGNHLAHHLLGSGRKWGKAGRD

Saccharomyces cerevisiae = assay: Inhibition of yeast alpha-glucosidase at 1 mM
Oryza sativa = assay: Inhibition of rice alpha-glucosidase at 1 mM
Aspergillus niger [7] = assay: Inhibition of Aspergillus niger amyloglucosidase at 1 mM
Prunus dulcis = assay: Inhibition of almond beta-glucosidase at 1 mM
Canavalia ensiformis [8] = assay: Inhibition of jack bean alpha-mannosidase at 1 mM
Helix pomatia = assay: Inhibition of snail beta-mannosidase at 1 mM
Aspergillus niger [9] = assay: Inhibition of Aspergillus niger beta-xylosidase at 1 mM
Canavalia ensiformis [10] = assay: Inhibition of jack bean beta-N-acetylglucosaminidase at 1 mM
Bos taurus = organism: Bos taurus; assay: Inhibition of bovine kidney beta-N-acetylglucosaminidase at 1 mM
Penicillium decumbens [11] = assay: Inhibition of Penicillium decumbens lysosomal Alpha-L-rhamnosidase at 1 mM by para-nitrophenolate release assay
[12] = target: T2, Tissue alpha-L-fucosidase (Bos taurus); details: 1 mM
Description: Inhibition of bovine lysosomal alpha-L-fucosidase at 1 mM by para-nitrophenolate release assay

Chain of Beta-galactosidase (Escherichia coli) (Q8VNN2 whole entry, looked up): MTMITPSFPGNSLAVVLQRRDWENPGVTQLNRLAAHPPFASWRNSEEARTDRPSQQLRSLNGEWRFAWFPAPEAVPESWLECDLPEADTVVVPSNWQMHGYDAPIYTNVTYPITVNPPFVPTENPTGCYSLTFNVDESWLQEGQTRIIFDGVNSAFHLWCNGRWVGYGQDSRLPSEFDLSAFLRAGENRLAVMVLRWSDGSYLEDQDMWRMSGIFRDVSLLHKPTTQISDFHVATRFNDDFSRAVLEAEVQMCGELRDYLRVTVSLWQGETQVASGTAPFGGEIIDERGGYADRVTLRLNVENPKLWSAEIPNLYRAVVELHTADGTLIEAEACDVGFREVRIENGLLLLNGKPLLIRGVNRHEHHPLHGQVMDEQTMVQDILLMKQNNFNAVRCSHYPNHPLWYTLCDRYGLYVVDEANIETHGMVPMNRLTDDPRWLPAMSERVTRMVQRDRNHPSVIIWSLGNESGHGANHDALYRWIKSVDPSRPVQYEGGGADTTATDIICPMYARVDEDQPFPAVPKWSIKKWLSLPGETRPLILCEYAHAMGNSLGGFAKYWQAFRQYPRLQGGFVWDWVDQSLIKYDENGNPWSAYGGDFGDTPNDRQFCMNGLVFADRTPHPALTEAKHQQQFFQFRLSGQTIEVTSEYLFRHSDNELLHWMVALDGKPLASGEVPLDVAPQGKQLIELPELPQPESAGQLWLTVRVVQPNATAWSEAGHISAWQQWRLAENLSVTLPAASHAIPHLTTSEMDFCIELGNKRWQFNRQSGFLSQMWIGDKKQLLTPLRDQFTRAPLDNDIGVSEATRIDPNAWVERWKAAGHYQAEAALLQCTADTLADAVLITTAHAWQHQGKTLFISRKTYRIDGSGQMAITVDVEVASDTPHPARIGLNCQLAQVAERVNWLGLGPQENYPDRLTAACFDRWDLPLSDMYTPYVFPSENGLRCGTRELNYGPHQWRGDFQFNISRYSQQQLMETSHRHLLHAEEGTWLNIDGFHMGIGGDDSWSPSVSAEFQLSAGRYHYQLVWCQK

`C[C@@H]1N[C@@H](O)[C@@H](O)[C@H](O)[C@@H]1O` gave a Ki [1] of 1 nM.
With `C[C@H]1NC[C@H](O)[C@H](O)[C@H]1O` the Ki [1] was 1000 nM, the inhibition [2] was 99% and the Ki [3] was 1000 nM.
For `O[C@H]1C=NC2(CC2)[C@H]1O`, the inhibition [2] was 76%, the Ki [3] was 57000 nM and the inhibition (Penicillium decumbens [4]) was 87%. For the same molecule, the inhibition (Coffea arabica) was “inactive”, the inhibition [5] was “inactive” and the inhibition [6] was “inactive”. For the same molecule, the inhibition (Saccharomyces cerevisiae) was “inactive”, the inhibition (Oryza sativa) was “inactive” and the inhibition (Aspergillus niger [7]) was “inactive”. For the same molecule, the inhibition (Prunus dulcis) was “inactive”, the inhibition (Canavalia ensiformis [8]) was “inactive” and the inhibition (Helix pomatia) was “inactive”. The inhibition (Aspergillus niger [9]) was “inactive”, the inhibition (Canavalia ensiformis [10]) was “inactive” and the inhibition (Bos taurus) was “inactive”.
`COc1ccc(C[C@@H]2NC[C@@H](O)[C@H]2O)cc1` gave a Ki [3] of 3200 nM.
For `C[C@@H]1NC[C@H](O)[C@H](O)[C@H]1O`, the inhibition (Penicillium decumbens [4]) was 0%, the inhibition (Penicillium decumbens [11]) was “inactive” and the inhibition [12] was “inactive”.
For `O[C@@H]1[C@@H](O)C2(CC2)NC[C@@H]1O`, the inhibition [2] was “inactive”, the inhibition (Penicillium decumbens [4]) was 72% and the inhibition (Coffea arabica) was “inactive”. For the same molecule, the inhibition [5] was “inactive”, the inhibition [6] was “inactive” and the inhibition (Saccharomyces cerevisiae) was “inactive”. The inhibition (Oryza sativa) was “inactive”, the inhibition (Aspergillus niger [7]) was “inactive” and the inhibition (Prunus dulcis) was “inactive”. For the same molecule, the inhibition (Canavalia ensiformis [8]) was “inactive”, the inhibition (Helix pomatia) was “inactive” and the inhibition (Aspergillus niger [9]) was “inactive”. The inhibition (Canavalia ensiformis [10]) was “inactive” and the inhibition (Bos taurus) was “inactive”.
`C[C@@H]1C[C@H](O)C2[C@@H](O)[C@@H](O)CN2C1` (single isomer, unassigned) gave a Ki [3] of 30 nM.
With `C[C@@H]1NC[C@H](O)[C@H]1O` the Ki [3] was 5500 nM.
Molecule `C[C@@H]1N=C[C@H](O)[C@@H]1O` has a Ki [1] of 10 nM.
In the case of `O[C@H]1[C@H](O)CNC2(CC2)[C@H]1O`, the Ki [1] is reported as 18000 nM, the inhibition [2] is reported as 83% and the inhibition (Penicillium decumbens [4]) is reported as “inactive”. For the same molecule, the inhibition (Coffea arabica) was “inactive”, the inhibition [5] was “inactive” and the inhibition [6] was “inactive”. The inhibition (Saccharomyces cerevisiae) was “inactive”, the inhibition (Oryza sativa) was “inactive” and the inhibition (Aspergillus niger [7]) was “inactive”. The inhibition (Prunus dulcis) was “inactive”, the inhibition (Canavalia ensiformis [8]) was “inactive” and the inhibition (Helix pomatia) was “inactive”. The inhibition (Aspergillus niger [9]) was “inactive”, the inhibition (Canavalia ensiformis [10]) was “inactive” and the inhibition (Bos taurus) was “inactive”.
`C[C@@H]1N=C[C@H](O)[C@H]1O` showed a Ki [3] of 140 nM.
`COc1ccc(C[C@@H]2NC[C@H](O)[C@H]2O)cc1` gave a Ki [3] of 3000 nM.
For `O[C@@H]1[C@@H](O)C=NC12CC2`, the inhibition [2] was 19%, the inhibition (Penicillium decumbens [4]) was 72% and the inhibition (Coffea arabica) was “inactive”. For the same molecule, the inhibition [5] was “inactive”, the inhibition [6] was “inactive” and the inhibition (Saccharomyces cerevisiae) was “inactive”. The inhibition (Oryza sativa) was “inactive”, the inhibition (Aspergillus niger [7]) was “inactive” and the inhibition (Prunus dulcis) was “inactive”. The inhibition (Canavalia ensiformis [8]) was “inactive”, the inhibition (Helix pomatia) was “inactive” and the inhibition (Aspergillus niger [9]) was “inactive”. For the same molecule, the inhibition (Canavalia ensiformis [10]) was “inactive” and the inhibition (Bos taurus) was “inactive”.
